# From ChEMBL document CHEMBL2176884, “ATP-binding site of bacterial enzymes as a target for antibacterial drug design” (J Med Chem, 2011)
# How the values were obtained:
# Pantothenate synthetase [1] = biological target: T1, Pantothenate synthetase (Mycobacterium tuberculosis, UniProt P9WIL5); test: Inhibition of Mycobacterium tuberculosis Pantothenate synthetase
# T1 sequence (P9WIL5 whole entry): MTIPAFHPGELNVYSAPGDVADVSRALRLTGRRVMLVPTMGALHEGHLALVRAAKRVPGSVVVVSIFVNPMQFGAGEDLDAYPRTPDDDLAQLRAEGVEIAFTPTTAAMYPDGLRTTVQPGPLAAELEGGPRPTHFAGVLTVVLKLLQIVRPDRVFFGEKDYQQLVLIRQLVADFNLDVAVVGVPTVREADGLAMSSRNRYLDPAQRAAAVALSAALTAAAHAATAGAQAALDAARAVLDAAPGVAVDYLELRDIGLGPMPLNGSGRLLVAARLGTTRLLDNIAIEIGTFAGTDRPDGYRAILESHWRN
# Pantothenate synthetase [2] = biological target: T1, Pantothenate synthetase; test: Binding affinity to Mycobacterium tuberculosis Pantothenate synthetase
# [3] = Inhibition of DNA gyrase
# [4] = Inhibition of Staphylococcus sp. APH(3')-3a
# Haemophilus influenzae = test: Antimicrobial activity against Haemophilus influenzae after broth microdilution method; assay type: functional
# [5] = Inhibition of Escherichia coli ACCase
# [6] = Inhibition of Saccharomyces cerevisiae Hsp90
# [7] = biological target: T2, Virulence sensor histidine kinase PhoQ (Salmonella typhimurium (strain LT2 / SGSC1412 / ATCC 700720), UniProt P0DM80); test: Inhibition of Salmonella typhimurium sensor kinase PhoQ; parameters: species or system Salmonella enterica subsp. enterica serovar Typhimurium
# T2 sequence (P0DM80 whole entry): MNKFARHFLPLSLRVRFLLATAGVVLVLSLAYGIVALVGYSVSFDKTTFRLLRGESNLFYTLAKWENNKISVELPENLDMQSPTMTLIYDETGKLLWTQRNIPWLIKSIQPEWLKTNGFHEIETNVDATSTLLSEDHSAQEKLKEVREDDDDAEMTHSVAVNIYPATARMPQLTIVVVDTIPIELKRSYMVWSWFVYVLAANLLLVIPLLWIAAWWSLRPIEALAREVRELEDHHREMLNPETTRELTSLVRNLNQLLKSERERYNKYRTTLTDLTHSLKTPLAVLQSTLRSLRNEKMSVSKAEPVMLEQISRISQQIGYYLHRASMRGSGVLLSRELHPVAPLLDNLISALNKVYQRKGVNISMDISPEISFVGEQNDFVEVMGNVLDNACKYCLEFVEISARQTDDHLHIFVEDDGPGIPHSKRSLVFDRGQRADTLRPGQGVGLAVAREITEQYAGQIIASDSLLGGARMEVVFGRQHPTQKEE
# [8] = Inhibition of Saccharomyces cerevisiae sensor kinase Sln1
# [9] = Inhibition of EnvZ by strand-transfer assay
# [10] = Inhibition of Escherichia coli His6-tagged ParC/ParE expressed in baculovirus-infected Sf9 cells by gel electrophoresis
# [11] = Inhibition of bacteria biotin carboxylase
# Enterococcus sp. = test: Antimicrobial activity against Enterococcus; assay type: functional
# Staphylococcus sp. = test: Antimicrobial activity against Staphylococcus; assay type: functional
smiles,measurement,setting,value
COCC(C)(C)C(O)C(=O)NS(=O)(=O)OC[C@H]1O[C@@H](n2cnc3c(N)ncnc32)[C@H](O)[C@@H]1O (stereo partly specified),Ki,Pantothenate synthetase [1],300 nM
COc1ccc2c(c1)cc(C)n2CC(=O)O,Kd,Pantothenate synthetase [2],800 µM
Cc1cc(=O)oc2cc(SCc3n[nH]c4cccc(OCc5ccc(C(C)(C)C)cc5)c34)ccc12,MNEC,[3],0.03 µg/mL
C[C@H]1CNCCN1S(=O)(=O)c1cccc2cnccc12,Ki,[4],49 µM
COc1cccc(OC)c1-c1cc2cnc(N)nc2nc1N,MIC,Haemophilus influenzae,0.125 µg/mL
same,IC50,[5],28 nM
C[C@@H]1C[C@H]2O[C@@H]2/C=C\C=C\C(=O)Cc2c(Cl)c(O)cc(O)c2C(=O)O1 [RADICICOL],Kd,[6],19 nM
same,Kd,[7],715 µM
same,IC50,[8],127 µM
CO[C@@H]1[C@@H](OC(N)=O)[C@@H](O)[C@H](Oc2ccc3c(O)c(NC(=O)c4ccc(O)c(CC=C(C)C)c4)c(=O)oc3c2C)OC1(C)C [NOVOBIOCIN],Kd,[9],120 µM
same,IC50,[10],210 nM
CC(C)(C)C(O)C(=O)NS(=O)(=O)OC[C@H]1O[C@@H](n2cnc3c(N)ncnc32)[C@H](O)[C@@H]1O (stereo partly specified),Ki,Pantothenate synthetase [1],300 nM
Nc1ncc2cc(-c3c(Br)cccc3Br)c(N)nc2n1,MIC,Haemophilus influenzae,0.125 µg/mL
same,IC50,[5],< 5 nM
N=C(N)NCCNS(=O)(=O)c1cccc2cnccc12,Ki,[4],49 µM
O=S(=O)(c1ccc(Cl)c2ccncc12)N1CCNCC1,Ki,[4],49 µM
Cc1ccccc1CN(Cc1ccc2c(c1)OCCO2)C(=O)c1cnc(N)o1,IC50,[11],7 nM
COCCC(O)C(=O)NS(=O)(=O)OC[C@H]1O[C@@H](n2cnc3c(N)ncnc32)[C@H](O)[C@@H]1O (stereo partly specified),Ki,Pantothenate synthetase [1],300 nM
COc1ccc2c(c1)cc(CNC(=O)c1cc3ccccc3o1)n2CC(=O)O,Kd,Pantothenate synthetase [2],0.86 µM
CC(C)(C)C(=O)C(=O)NS(=O)(=O)OC[C@H]1O[C@@H](n2cnc3c(N)ncnc32)[C@H](O)[C@@H]1O,Ki,Pantothenate synthetase [1],300 nM
CC(C)(C)[C@@H](N)C(=O)NS(=O)(=O)OC[C@H]1O[C@@H](n2cnc3c(N)ncnc32)[C@H](O)[C@@H]1O,Ki,Pantothenate synthetase [1],300 nM
NCCNS(=O)(=O)c1ccc(Cl)c2ccncc12,Ki,[4],49 µM
NCCNS(=O)(=O)c1cccc2cnccc12,Ki,[4],49 µM
COC(=O)C1CCCC(NCc2n[nH]c3cccc(OCc4cc(Cl)cc(Cl)c4)c23)C1 (stereo unspecified),MIC,Enterococcus sp.,4 µg/mL
same,IC50,[3],0.25 µg/mL
same,MIC,Staphylococcus sp.,4 µg/mL
